Earlier results on one molecule are cited in patent US5141290A, “Toothbrush” (Hamivreshet Brush Factory, priority 1990, dated 1992).

Structures are written as SMILES.

This data set concerns dental plaque.

`[H]/N=C(\N/C(=N/[H])NCCCCCCNC(=N)NC(=N)Nc1ccc(Cl)cc1)Nc1ccc(Cl)cc1` [chlorhexidine]: under “clinically tested, among chemical agents”, the “potential to inhibit the formation of plaque” value is “has shown the greatest promise”. The plaque-reducing property result (in vivo) is on record as “high plaque-reducing property”.
